pEC50, pIC50: −log10 of the molar value. Where two headings read alike, the source gives them in different places.
Tests used:
tumor cells [1] = test: MTS proliferation assay (72 h read-out); format: cell-based
How it was run: (§1)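 Viability was read by MTS absorbance at 492 nm after 3 h with reagent. Before that, cells plated a day earlier at 1.5×10^3–10^4 per well had been incubated with test compound at final concentrations of 0.001–10 μM for 72 h; activity is given as category scores A–D.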

[2] = MTS proliferation assay (72 h read-out); format: cell-based; details: Homo sapiens, MRC5 cells
How it was run: as §1

tumor cells [3] = test: Mitochondrial membrane potential, JC-1 (read-out 48 h); format: cell-based; details: JC-1, 48 h
How it was run: (§2)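 Tumor cells were treated with test compounds (adherent cells after 24 h of attachment, suspension cells immediately), medium holding up to 5% DMSO. After 48 h, JC-1 (2-5 μg/ml in added medium) was applied for 30 min. Fluorescence microscopy (FITC/TRITC filters) scored the fraction of cells with dissipated mitochondrial membrane potential as categories A-D.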

[4] = as above; format: cell-based; details: PBL, JC-1, 48 h
How it was run: as §2

H460 = test: Colony Forming Units (read-out 6 days), H460; format: cell-based, human; details: Homo sapiens, NCI-H460, 144 h, colonies containing more than 30 cells, read-out: Colony Forming Units, score based on IC50, H460
How it was run: (§3)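 Cells seeded at 100-150 per well and left to attach for 48 h before compound addition (0.001 μM-3 μM; DMSO controls). Incubated 5-7 days under culture conditions; colonies of more than 30 cells counted by microscope.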

HeLa = test: Colony Forming Units (read-out 6 days), HeLa; format: cell-based, human; details: Homo sapiens, 144 h, colonies containing more than 30 cells, read-out: Colony Forming Units, score based on IC50, HeLa
How it was run: as §3

tumor cells [5] = test: Hoechst 33342 nuclear staining (48 h read-out); format: cell-based
How it was run: (§4)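 Adherent cells pre-spread 24 h before dosing, suspension cells dosed at seeding; compounds at 0.001 μM-10 μM final, 48 h at culture conditions. Hoechst 33342 (2-5 μg/ml) added for 30 min, then fluorescence microscopy scoring of apoptotic nuclear fraction and apoptosis-specific morphology, reported as scores A-D.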

[6] = Hoechst 33342 nuclear staining (48 h read-out); format: cell-based
How it was run: as §4

[7] = Homo sapiens, HT-1080, HT1080 cells, read-out: MTS proliferation assay IC50, HT1080
[8] = Homo sapiens, HeLa cells, read-out: MTS proliferation assay IC50, HeLa
[9] = Homo sapiens, Jurkat cells, read-out: MTS proliferation assay IC50, Jurkat
[10] = Jily cells, read-out: MTS proliferation assay IC50, Jily
[11] = Homo sapiens, HeLa cells, read-out: Mitochondrial membrane potential (read-out 48 h) HeLa
[12] = Homo sapiens, Jurkat cells, read-out: Mitochondrial membrane potential (read-out 48 h) Jurkat
[13] = Homo sapiens, MCF7 cells, read-out: Mitochondrial membrane potential (read-out 48 h) MCF7
[14] = Jily cells, read-out: Mitochondrial membrane potential (read-out 48 h) Jily
[15] = Homo sapiens, HeLa cells, read-out: Hoechst 33342 nuclear staining EC50, HeLa
[16] = Homo sapiens, Jurkat cells, read-out: Hoechst 33342 nuclear staining EC50, Jurkat
[17] = Jily cells, read-out: Hoechst 33342 nuclear staining EC50, Jily
[18] = Homo sapiens, MRC5 cells, read-out: Hoechst 33342 nuclear staining EC50, MRC5
[19] = PBL, read-out: Hoechst 33342 nuclear staining EC50, PBL

pIC50 (tumor cells [1]; [7])	pIC50 (tumor cells [1]; [8])	pIC50 (tumor cells [1]; [9])	pIC50 (tumor cells [1]; [10])	pEC50 (tumor cells [3]; [11])	pEC50 (tumor cells [3]; [12])	pEC50 (tumor cells [3]; [13])	pEC50 (tumor cells [3]; [14])	pEC50 [4]	pIC50 (H460)	melting point [°C]	pIC50 (HeLa)	pEC50 (tumor cells [5]; [15])	pEC50 (tumor cells [5]; [16])	pEC50 (tumor cells [5]; [17])	pEC50 [6, 19]	Compound	pIC50 [2]	pEC50 [6, 18]
7.00 to 8.00	6.00 to 7.00	7.00 to 8.00	7.00 to 8.00	6.00 to 7.00	7.00 to 8.00	6.00 to 7.00	6.00 to 7.00	< 6.00	7.00 to 8.00	110	7.00 to 8.00	6.00 to 7.00	7.00 to 8.00	6.00 to 7.00		CC(C)Oc1ccccc1C(=O)c1oc2ccc(Cl)cc2c1N [Example 9]	6.00 to 7.00	6.00 to 7.00
> 8.00	7.00 to 8.00	> 8.00	> 8.00	7.00 to 8.00	> 8.00	7.00 to 8.00	> 8.00	< 6.00	> 8.00	124 to 125	7.00 to 8.00	> 8.00	> 8.00	> 8.00		CCOc1ccc(OC)cc1C(=O)c1oc2ccc(Cl)cc2c1N [Example 12]	> 8.00	6.00 to 7.00
7.00 to 8.00	7.00 to 8.00	> 8.00	> 8.00	7.00 to 8.00	7.00 to 8.00	7.00 to 8.00	7.00 to 8.00	< 6.00	7.00 to 8.00	95 to 97	7.00 to 8.00	7.00 to 8.00	7.00 to 8.00	7.00 to 8.00		CCCOc1ccc(OC)cc1C(=O)c1oc2ccc(Cl)cc2c1N [Example 14]	7.00 to 8.00	7.00 to 8.00
7.00 to 8.00	6.00 to 7.00	7.00 to 8.00	7.00 to 8.00	6.00 to 7.00	7.00 to 8.00	6.00 to 7.00	6.00 to 7.00	< 6.00	7.00 to 8.00	131 to 132	7.00 to 8.00	6.00 to 7.00	7.00 to 8.00	7.00 to 8.00		COc1ccc(OC(C)C)c(C(=O)c2oc3ccc(Cl)cc3c2N)c1 [Example 15]	7.00 to 8.00	6.00 to 7.00
> 8.00	> 8.00	> 8.00	> 8.00	> 8.00	> 8.00	> 8.00	> 8.00	< 6.00	> 8.00	132 to 134	> 8.00	> 8.00	> 8.00	> 8.00	< 6.00	CCOc1ccc(F)cc1C(=O)c1oc2ccc(Cl)cc2c1N [Example 18]	> 8.00	> 8.00
> 8.00	7.00 to 8.00	> 8.00	> 8.00	7.00 to 8.00	7.00 to 8.00	7.00 to 8.00	7.00 to 8.00	< 6.00	7.00 to 8.00	152 to 156	7.00 to 8.00	7.00 to 8.00	7.00 to 8.00	7.00 to 8.00	< 6.00	CCOc1ccc(F)cc1C(=O)c1oc2nc(C)ccc2c1N [Example 29]	7.00 to 8.00	6.00 to 7.00
7.00 to 8.00	7.00 to 8.00	7.00 to 8.00	7.00 to 8.00	6.00 to 7.00	7.00 to 8.00	< 6.00	7.00 to 8.00	< 6.00		162		7.00 to 8.00	7.00 to 8.00	7.00 to 8.00	< 6.00	CCOc1ccc(F)cc1C(=O)c1oc2cnc(C)cc2c1N [Example 31]	7.00 to 8.00	6.00 to 7.00
< 6.00	< 6.00	< 6.00	< 6.00	< 6.00	< 6.00	< 6.00	< 6.00	< 6.00		138 to 142		< 6.00	< 6.00	< 6.00	< 6.00	CCOc1ccccc1C(=O)c1sc2ncccc2c1N [Example 114]	< 6.00	< 6.00
< 6.00	< 6.00	< 6.00	< 6.00	< 6.00	< 6.00	< 6.00	< 6.00	< 6.00		205		< 6.00	< 6.00	< 6.00	< 6.00	CCOc1ccc(F)cc1C(=O)c1sc2ncc([N+](=O)[O-])cc2c1N [Example 115]	< 6.00	< 6.00
6.00 to 7.00	6.00 to 7.00	7.00 to 8.00	7.00 to 8.00	6.00 to 7.00	7.00 to 8.00	< 6.00	7.00 to 8.00	< 6.00		80		7.00 to 8.00	7.00 to 8.00	7.00 to 8.00	< 6.00	CCOc1ccc(F)cc1C(=O)c1sc2ncc(N)cc2c1N [Example 116]	6.00 to 7.00	7.00 to 8.00
< 6.00	< 6.00	< 6.00	< 6.00	< 6.00	< 6.00	< 6.00	< 6.00	< 6.00		116		< 6.00	< 6.00	< 6.00	< 6.00	CCOc1ccccc1C(=O)c1sc2ncc(N)cc2c1N [Example 117]	< 6.00	< 6.00
6.00 to 7.00	6.00 to 7.00	7.00 to 8.00	7.00 to 8.00	6.00 to 7.00	7.00 to 8.00	6.00 to 7.00		< 6.00		144 to 146		6.00 to 7.00	7.00 to 8.00	7.00 to 8.00	< 6.00	CCOc1ccc(C)cc1C(=O)COc1ccc(Cl)cc1C#N [Example 144]	6.00 to 7.00	6.00 to 7.00
